Measured values taken from patent US9277697B2, “Compositions and methods for anti-transpiration in plants” (Innovation Hammer, LLC, priority 2004, dated 2016).

How the values were obtained:
[1] = test system: pectic cell; assay: Penetration and integration of saccharides
[2] = test system: Rice, Lantana, Cabbage; assay: Yield with iron-Mac formulations versus component controls, all plant types; type: in vivo; conditions: for all plant types; 12 ppm Fe—Na2EDTA, 50 mM (NH4)2SO4
Method: (§1) Dilute the mixture in an appropriate volume of water. Mix until the compounds are dissolved. Spray the resulting formulation on the plant foliage (e.g. New Guinea Impatiens) so that the foliage glistens. Allow a day for leaf uptake. The following results are of growth promotion using iron-Mac formulations of the invention versus conventionally cultured controls and with identical quantities of each of the components as separate controls.

[3] = test system: Cabbage; assay: Growth promotion with iron-Mac formulations versus component controls; type: in vivo; conditions: 12 ppm iron-Mac, 12 ppm Fe—Na2EDTA, 50 mM (NH4)2SO4
Method: as §1

[4] = test system: Lantana; assay: as above; type: in vivo; conditions: 12 ppm iron-Mac, 12 ppm Fe—Na2EDTA, 50 mM (NH4)2SO4
Method: as §1

[5] = test system: Rice; assay: as above; type: in vivo; conditions: 12 ppm iron-Mac, 12 ppm Fe—Na2EDTA, 50 mM (NH4)2SO4
Method: as §1

[6] = test system: weeds; assay: Weed kill by tank-mixes of saccharides, herbicide and ammonium sulfate; type: in vivo; conditions: 1 lb/acre glyphosate; additive 1:1 methyl glucosides to organic ammonium sulfates
Text: The inherent benefit of the reduction of productivity observed by surface coatings was exploited by utilizing their weakening effects as additives to enhance weed kill of pesticides. In sets of replicated trials, weeds were given tank-mixes with saccharides, herbicides, and ammonium sulfate fertilizer. Perhaps the most widely used herbicide, N-phosphonomethylglycine (PO(OH)2CH2.2NHCH2COOH), is commonly referred to as glyphosate, and is most abundantly found formulated as a water-soluble mono-isopropylamine (IPA) salt or sodium salt, hereinafter referred to as glyphosate, meant to include salts, thereof. The preferred formulation of the present invention is a blend of 4 lbs./acre to 5 lbs./acre glyphosate; 10 lbs./acre to 100 lbs./acre of 60% to 100% methyl glucosides in a 1:1 to 3:1 blend with ammonium sulfate; and with optional surfactant. After foliar application, inhibitory methods yielded approximately 50% to 85% improved response of weeds to herbicide and additives over positive controls. […] An additional benefit is the reversal of the weakening effect of treatments to plants that have been genetically engineered for herbicide resistance. After treatment with a tank mix of herbicide and Series 1 components, a Series 2 formulation of Ca^2+-chelators may be sprayed over a Series 1 treatment once the herbicide has killed its targeted weeds. […]

## CC(=O)OC[C@H]1OC(OC(C)=O)[C@H](OC(C)=O)[C@@H](OC(C)=O)[C@@H]1OC(C)=O (some centres unmarked) [pentaace tylglucopyranose]
[1]
  penetration and integration: neither penetrate nor integrate

## CC(=O)OC[C@H]1OC(OC(C)=O)[C@H](OC(C)=O)[C@@H](OC(C)=O)[C@H]1OC(C)=O (some centres unmarked) [pentaace tylgalactopyranose]
[1]
  penetration and integration: neither penetrate nor integrate

## CCCCCCCCCCCCCCO[C@@H]1O[C@H](CO)[C@@H](O[C@@H]2O[C@@H](CO)[C@H](O)[C@@H](O)[C@@H]2O)[C@H](O)[C@H]1O (stereo in doubt) [tetradecylmaltoside]
[1]
  penetration and integration: neither penetrate nor integrate

## CC(=O)OC[C@H]1OC(OC(C)=O)[C@@H](OC(C)=O)[C@@H](OC(C)=O)[C@@H]1OC(C)=O (some centres unmarked) [pentaacetylmanno-pyranose]
[1]
  penetration and integration: neither penetrate nor integrate

## N.N.O=S(=O)(O)O [(NH4)2SO4]
[2]
  yield reduction: 5% reduction
[3]
  Result (growth promotion): retarded
[4]
  Result (growth promotion): retarded
[5]
  Result (growth promotion): retarded

## Fe—Na2EDTA
[2]
  yield reduction: 5% reduction
[3]
  Result (growth promotion): phytotoxic
[4]
  Result (growth promotion): phytotoxic
[5]
  Result (growth promotion): phytotoxic

## CC(=O)OC[C@H]1OC(Oc2ccccc2)[C@H](OC(C)=O)[C@@H](OC(C)=O)[C@@H]1OC(C)=O (some centres unmarked) [phenyltetraacetylglucoside]
[1]
  penetration and integration: neither penetrate nor integrate

## O=C(O)CNCP(=O)(O)O [glyphosate, N-phosphonomethylglycine]
[6]
  lethal dose response: 100%
